Laboratory results reported in patent US11285156B2, “Substituted piperazines as KRAS G12C inhibitors” (Amgen Inc., priority 2018, dated 2022).

Target: GDP-bound KRAS protein (aa 1-169), containing both G12C and C118A amino acid substitutions (Homo sapiens (Human), UniProt P01116, C118A/G12C)
Experiment: Coupled nucleotide exchange assay (SOS-mediated nucleotide exchange, AlphaScreen)
Type: biochemical
Settings: 5 min compound pre-incubation; for IC50: read-out: Coupled exchange IC50 (5 min; μM)

GDP-bound KRAS protein (aa 1-169), containing both G12C and C118A amino acid substitutions, sequence (P01116 other isoform, or with tags, fused parts or gaps G12C/C118A): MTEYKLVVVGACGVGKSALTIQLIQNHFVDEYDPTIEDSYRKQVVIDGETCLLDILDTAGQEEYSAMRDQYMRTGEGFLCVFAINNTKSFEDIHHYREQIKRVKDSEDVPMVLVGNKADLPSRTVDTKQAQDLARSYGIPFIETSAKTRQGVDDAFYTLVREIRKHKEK

Compound | IC50 | Coupled exchange IC50 (5 min; μM)
C=CC(=O)N1[C@H](C)CN(c2nc(=O)n(-c3c(C)cc(N)nc3C(C)C)c3nc(-c4ccccc4F)c(F)cc23)C[C@@H]1C (single isomer, unassigned) [Example 123-4] | 1 µM | –
C=CC(=O)N1C[C@H](C)N(c2nc(=O)n(-c3c(C)ccnc3C(C)C)c3nc(-c4ccccc4N(C)C(C)=O)c(Cl)cc23)C[C@H]1C (atropisomer, axis not shown; (M)) [Example 129-3, (M)-N-[2-[6-Chloro-4-[(2S,5R)-2,5-dimethyl-4-prop-2-enoyl-piperazin-1-yl]-1-(2-isopropyl-4-methyl-3-pyridyl)-2-oxo-pyrido[2,3-d]pyrimidin-7-yl]phenyl]-N-methyl-acetamide] | 0.352 µM | –
C=CC(=O)N1C[C@H](C)N(c2nc(=O)n(-c3c(C)cc(S(C)(=O)=O)cc3C(C)C)c3nc(-c4ccccc4F)c(Cl)cc23)C[C@H]1C (single isomer, unassigned) [Example 215-1] | – | 3.79 µM
C=CC(=O)N1C[C@H](C)N(c2nc(=O)n(-c3c(C(C)C)ccnc3C(C)C)c3nc(-c4ccccc4C)c(F)cc23)C[C@H]1C (single isomer, unassigned) [Example 125-5] | 0.46 µM | –
C=CC(=O)N1C[C@H](C)N(c2nc(=O)n(-c3c(C)cc(P(C)(C)=O)cc3C(C)C)c3nc(-c4ccccc4F)c(Cl)cc23)C[C@H]1C [Example 102-7, 6-Chloro-1-(4-dimethylphosphoryl-2-isopropyl-6-methyl-phenyl)-4-[(2S,5R)-2,5-dimethyl-4-prop-2-enoyl-piperazin-1-yl]-7-(2-fluorophenyl) pyrido[2,3-d]pyrimidin-2-one] | 0.376 µM | –
C=CC(=O)N1C[C@H](C)N(c2nc(=O)n3c4nc(c(Cl)cc24)-c2ccccc2C/C=C\Cc2cccc(C(C)C)c2-3)C[C@H]1C (single isomer, unassigned) [Example 146-1-2] | 53.8 µM | –
C=CC(=O)N1CCN(c2c(C(N)=O)c(=O)n(-c3c(C)ccnc3C(C)C)c3nc(-c4ccccc4F)c(Cl)cc23)CC1 [Example 221, 4-(4-Acryloylpiperazin-1-yl)-6-chloro-7-(2-fluorophenyl)-1-(2-isopropyl-4-methylpyridin-3-yl)-2-oxo-1,2-dihydro-1,8-naphthyridine-3-carboxamide] | 1.26 µM | –
C=CC(=O)N1C[C@H](C)N(c2nc(=O)n(-c3c(C)ccnc3C(C)C)c3nc(N4CCCCC4C)c(Cl)cc23)C[C@H]1C (mixture of isomers) [Example 69-12, (M)-6-Chloro-4-[(2S,5R)-2,5-dimethyl-4-prop-2-enoyl-piperazin-1-yl]-1-(2-isopropyl-4-methyl-3-pyridyl)-7-[(2SR)-2-methyl-1-piperidyl]pyrido[2,3-d]pyrimidin-2-one] | – | 2.88 µM
C=CC(=O)N1CCN(c2nc(=O)n(-c3c(C)ccnc3C(C)C)c3nc(-c4c(C)ccc5c4CC(=O)N5)c(Cl)cc23)[C@@H](C)C1 [Example 228, 4-((S)-4-Acryloyl-2-methylpiperazin-1-yl)-6-chloro-1-(2-isopropyl-4-methylpyridin-3-yl)-7-(5-methyl-2-oxoindolin-4-yl)pyrido[2,3-d]pyrimidin-2(1H)-one] | – | 0.769 µM
C=CC(=O)N1C[C@H](C)N(c2nc(=O)n(-c3c(N(C)C)ccnc3C(C)C)c3nc(-c4ccccc4C)c(Cl)cc23)C[C@H]1C (single isomer, unassigned) [Example 103-7-1] | 0.653 µM | –
C=CC(=O)N1C[C@H](C)N(c2nc(=O)n(-c3c(C)cc(CN(C)C)cc3C(C)C)c3nc(-c4ccccc4F)c(F)cc23)C[C@H]1C (single isomer, unassigned) [Example 80-20-1] | 13.9 µM | –
C=CC(=O)N1C[C@H](C)N(c2nc(=O)n(-c3c(C(C)C)ncnc3C(C)C)c3nc(-c4ccccc4C#N)c(Cl)cc23)C[C@H]1C [Example 100-3, 2-[6-Chloro-1-(4,6-diisopropylpyrimidin-5-yl)-4-[(2S,5R)-2,5-dimethyl-4-prop-2-enoyl-piperazin-1-yl]-2-oxo-pyrido[2,3-d]pyrimidin-7-yl]benzonitrile] | 0.763 µM | –
Cc1ccnc(C(C)C)c1-n1c(=O)nc(N2C[C@@H](C)N(C(=O)C#CCN(C)C)C[C@@H]2C)c2cc(F)c(-c3ccccc3F)nc21 [Example 119-2, 4-((2S,5R)-4-(4-(Dimethylamino)but-2-ynoyl)-2,5-dimethylpiperazin-1-yl)-6-fluoro-7-(2-fluorophenyl)-1-(2-isopropyl-4-methylpyridin-3-yl)pyrido[2,3-d]pyrimidin-2(1H)-one] | 0.33 µM | –
C=CC(=O)N1C[C@H](C)N(c2nc(=O)n(-c3c(N(CC)CC)ccnc3C(C)C)c3nc(-c4ccccc4C(C)C)c(Cl)cc23)C[C@H]1C (single isomer, unassigned) [Example 103-6-1] | 1.15 µM | –
C=CC(=O)N1C[C@H](C)N(c2nc(=O)n(-c3c(C)ccnc3C(C)C)c3nc(-c4ccccc4NC(=O)C(C)(C)C)c(Cl)cc23)C[C@H]1C (atropisomer, axis not shown; (M)) [Example 92-35, (M)-N-[2-[6-Chloro-4-[(2S,5R)-2,5-dimethyl-4-prop-2-enoyl-piperazin-1-yl]-1-(2-isopropyl-4-methyl-3-pyridyl)-2-oxo-pyrido[2,3-d]pyrimidin-7-yl]phenyl]-2,2-dimethyl-propanamide] | 0.758 µM | –
C=CC(=O)N1C[C@H](C)N(c2nc(=O)n(-c3c(N)ncnc3C(C)C)c3nc(-c4ccccc4F)c(Cl)cc23)C[C@H]1C (single isomer, unassigned) [Example 189-2] | – | 14.7 µM
CC(C)c1ncnc(C(C)C)c1-n1c(=O)nc(N2CCN(C(=O)/C=C/CN(C)C)C[C@@H]2C)c2cc(Cl)c(-c3ccccc3F)nc21 [Example 102-2, 6-Chloro-1-(4,6-diisopropylpyri-midin-5-yl)-4-[(2S)-4-[(E)-4-(dimethylamino)but-2-enoyl]-2-methyl-piperazin-1-yl]-7-(2-fluorophenyl) pyrido[2,3-d]pyrimidin-2-one] | 1.23 µM | –
C=CC(=O)N1C[C@H](C)N(c2nc(=O)n3c4nc(c(Cl)cc24)-c2ccccc2C/C=C/Cc2ccccc2-3)C[C@H]1C (single isomer, unassigned) [Example 146-3-1] | 204 µM | –
C=CC(=O)N1C[C@H](C)N(c2nc(=O)n(C3CCCCC3)c3nc(-c4ccccc4F)c(Cl)cc23)C[C@H]1C [110-2, 6-Chloro-1-cyclohexyl-4-[(2S,5R)-2,5-dimethyl-4-prop-2-enoyl-piperazin-1-yl]-7-(2-fluorophenyl)pyrido [2,3-d]pyrimidin-2-one] | – | 13.4 µM
C=CC(=O)N1CCN(c2nc(=O)n(-c3c(C)ccnc3C(C)C)c3nc(-c4c(O)cccc4F)c(F)cc23)C(C)C1C (single isomer, unassigned) [Example 124-16-2, 4-[trans-2,3-dimethyl-4-prop-2-enoyl-piperazin-1-yl]-6-fluoro-7-(2-fluoro-6-hydroxy-phenyl)-1-(2-isopropyl-4-methyl-3-pyridyl)pyrido[2,3-d]pyrimidin-2-one] | 7.37 µM | –
C=CC(=O)N1C[C@H](C)N(c2nc(=O)n(-c3c(C)ccnc3C(C)C)c3nc(-c4ncccc4C)c(Cl)cc23)C[C@H]1C (atropisomer, axis not shown; (M)) [Example 96-1, (M)-6-Chloro-4-[(2S,5R)-2,5-dimethyl-4-prop-2-enoyl-piperazin-1-yl]-1-(2-isopropyl-4-methyl-3-pyridyl)-7-(3-methyl-2-pyridyl)pyrido[2,3-d]pyrimidin-2-one] | 0.345 µM | –
C=CC(=O)N1C[C@H](C)N(c2nc(=O)n(-c3c(C)ccnc3C(C)C)c3nc(C#CC(C)(C)C)c(Cl)cc23)C[C@H]1C (atropisomer, axis not shown; (M)) [Example 95-7, (M)-6-chloro~7-(3,3-dimethylbut-1-ynyl)-4-[(2S,5R)-2,5-dimethyl-4-prop-2-enoyl-piperazin-1-yl]-1-(2-isopropyl-4-methyl-3-pyridyl)pyrido [2,3-d]pyrimidin-2-one] | 34 µM | –
C=CC(=O)N1[C@H](C)CN(c2nc(=O)n(-c3c(C)ccnc3C(C)C)c3nc(-c4ccccc4F)c(Cl)nc23)C[C@@H]1C [Example 224, 4-((3R,5S)-4-Acryloyl-3,5-dimethylpiperazin-1-yl)-6-chloro-7-(2-fluorophenyl)-1-(2-isopropyl-4-methylpyridin-3-yl)pteridin-2(1H)-one] | 7.62 µM | –
C=CC(=O)N1C[C@H](C)N(c2nc(=O)n3c4nc(c(Cl)cc24)-c2ccccc2C/C=C\Cc2cccc(C(C)C)c2-3)C[C@H]1C [Example 146-1, (F)-(9Z)-19-Chloro-22-((2S,5R)-2,5-dimethyl-4-(2-propenoyl)-1-piperazinyl)-3-(2-propanyl)-1,23,26-triazapentacyclo[16.6.2.0˜2,7˜.0˜12,17˜0˜21,25-]hexacosa-2,4,6,9,12,14,16,18,20,22,25-undecaen-24-one and (F)-19-chloro-22-((2S,5R)-2,5-dimethyl-4-(2-propenoyl)-1-piperazinyl)-3-(2-propanyl)-1,23,26-triazapentacyclo[6.6.2.0˜2,7˜.0˜12,17˜.0˜21,25˜]hexacosa-2,4,6,9,12,14,16,18,20,22,25-undecaen-24-one] | 12.8 µM | –
C=CC(=O)N1C[C@H](C)N(c2nc(=O)n(-c3c(C)cc(CN(C)C)cc3C(C)C)c3nc(-c4c(N)cccc4F)c(F)cc23)C[C@H]1C [Example 184, 4-((2S,5R)-4-Acryloyl-2,5-dimethylpiperazin-1-yl)-7-(2-amino-6-fluorophenyl)-1-(4-((dimethylamino)methyl)-2-isopropyl-6-methylphenyl)-6-fluoropyrido[2,3-d]pyrimidin-2(1H)-one] | 2.81 µM | –
C=CC(=O)N1C[C@@H]2CC[C@H]1CN2c1nc(=O)n(-c2c(C)ccnc2C(C)C)c2nc(-c3ccccc3F)c(Cl)cc12 (atropisomer, axis not shown; (M)) [Example 79-11, (M)-6-Chloro-7-(2-fluorophenyl)-1-(2-isopropyl-4-methyl-3-pyridyl)-4-[(1S,4S)-5-prop-2-enoyl-2,5-diazabicyclo[2.2.2]octan-2-yl]pyrido[2,3-d]pyrimidin-2-one] | 26.7 µM | –
C=CC(=O)N1C[C@H](C)N(c2nc(=O)n(-c3c(C)cc([S+](C)[O-])cc3C(C)C)c3nc(-c4ccccc4C)c(Cl)cc23)C[C@H]1C (single isomer, unassigned) [Example 213-4] | – | 1.51 µM
